In patent US9422263B2, “Fluoro-substituted 3,5-dicyano-4-(1H-indazol-5-yl)-2,6-dimethyl-1,4-dihydropyridine derivatives and methods of use thereof” (BAYER PHARMA AKTIENGESELLSCHAFT, priority 2009, dated 2016):

biological target: recombinant kinase domain of the human c-Met (amino acids 960-1390) (Homo sapiens (Human), UniProt P08581); assay: c-Met receptor tyrosine kinase homogeneous time-resolved fluorescence assay (alternative format); format: biochemical; conditions: HTRF format; ATP 10 μM
From the text: c-Met Receptor Tyrosine Kinase Homogeneous Time-Resolved Fluorescence Assay (Alternative Format):
The N-terminally His6-tagged recombinant kinase domain of the human c-Met (amino acids 960-1390), expressed in insect cells (SF21) and purified by Ni-NTA affinity chromatography and consecutive size exclusion chromatography (Superdex 200), is used. Alternatively, commercially available c-Met (Millipore) can be used. As substrate for the kinase reaction, the biotinylated poly-Glu, Tyr (4:1) copolymer (#61GTOBLC, Cis Biointernational, Marcoule, France) is used.
For the assay, […] of a 100-fold concentrated solution of the test compound in DMSO is pipetted into a black low-volume 384-well microtiter plate (Greiner Bio-One, Frickenhausen, Germany). 2 μL of a solution of c-Met in assay buffer [25 mM Hepes/NaOH, pH 7.5; 5 mM MgCl2; 5 mM MnCl2; 2 mM dithiothreitol; 0.1% (v/v) Tween 20 (Sigma); 0.1% (w/v) bovine serum albumin] are added, and the mixture is incubated for 15 min at 22° C. to allow pre-binding of the test compound to the enzyme before the start of the kinase reaction. Then, the kinase reaction is started by the addition of 3 μL of a solution of adenosine triphosphate (ATP, 16.7 μM; final concentration in the 5 μL assay volume is 10 μM) and substrate (2.27 μg/mL, final concentration in the 5 μL assay volume is 1.36 μg/mL ˜30 nM) in assay buffer, and the resulting mixture is incubated for a reaction time of 30 min at 22° C. The concentration of c-Met in the assay is adjusted depending on the activity of the enzyme lot and is appropriately chosen to have the assay in the linear range; typical enzyme concentrations are in the range of about 0.03 nM (final concentration in the 5 μL assay volume). The reaction is stopped by the addition of 5 μL of a solution of HTRF detection reagents [40 nM streptavidine-X Lent and 2.4 nM PT66-Eu-chelate, an europium-chelate labelled anti-phosphotyrosine antibody (Perkin-Elmer)] in an aqueous EDTA solution [100 mM EDTA, 0.2% (w/v) bovine serum albumin in 50 mM HEPES/NaOH, pH 7.5].
The resulting mixture is incubated for 1 h at 22° C. to allow the binding of the biotinylated phosphorylated peptide to the streptavidine-XLent and the PT66-Eu-chelate. Subsequently, the amount of phosphorylated substrate is evaluated by measurement of the resonance energy transfer from the PT66-Eu-chelate to the streptavidine-XLent. Therefore, the fluorescence emissions at 620 nm and 665 nm after excitation at 350 nm are measured in an HTRF reader, e.g. Rubystar (BMG Lab-technologies, Offenburg, Germany) or Viewlux (Perkin-Elmer). The ratio of the emissions at 665 nm and at […] is taken as the measure for the amount of phosphorylated substrate. The data are normalised (enzyme reaction without inhibitor=0% inhibition; all other assay components but no enzyme=100% inhibition).

recombinant kinase domain of the human c-Met (amino acids 960-1390), sequence (P08581 960-1390): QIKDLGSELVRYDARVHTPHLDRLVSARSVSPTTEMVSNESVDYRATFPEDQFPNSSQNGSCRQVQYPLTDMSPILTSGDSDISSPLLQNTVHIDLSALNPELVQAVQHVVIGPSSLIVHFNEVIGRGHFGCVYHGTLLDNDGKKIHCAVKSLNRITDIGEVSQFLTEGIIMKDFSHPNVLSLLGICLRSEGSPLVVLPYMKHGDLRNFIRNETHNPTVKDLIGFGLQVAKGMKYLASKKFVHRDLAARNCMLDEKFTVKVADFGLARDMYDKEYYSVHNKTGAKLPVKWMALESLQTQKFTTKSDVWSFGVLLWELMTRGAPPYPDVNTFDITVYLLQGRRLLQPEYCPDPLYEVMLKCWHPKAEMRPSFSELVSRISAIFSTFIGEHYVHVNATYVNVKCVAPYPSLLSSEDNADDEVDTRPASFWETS

Compound | IC50
CC1=C(C#N)C(c2ccc3[nH]nc(C)c3c2)C(C#N)=C(C(F)(F)F)N1 (single isomer, unassigned) [Example 6] | 1 nM
CC1=C(C#N)C(c2ccc3[nH]nc(C)c3c2)C(C#N)=C(C(F)F)N1 (single isomer, unassigned) [Example 3, 2-(Difluoromethyl)-6-methyl-4-(3-methyl-1H-indazol-5-yl)-1,4-dihydropyridine-3,5-dicarbonitrile] | 2 nM
Cc1n[nH]c2cc(F)c(C3C(C#N)=C(C(F)F)NC(C(F)F)=C3C#N)cc12 [Example 14, 2,6-Bis(difluoromethyl)-4-(6-fluoro-3-methyl-1H-indazol-5-yl)-1,4-dihydropyridine-3,5-dicarbonitrile] | 3 nM
